For experiment [1], the system named is CCR5 expression in ECE included PBMC cells. The following applies: 50 μM spermin.
Experimental: Plasmid is transfected in to PBMC cells using standard protocol (lipofectamine) and selected for ECE insertion using NGS analyses. Cells are incubated in CTS™ OpTmizer™ (ThermoFisher A3705001) with or without 50 μM spermin. Cells are then stained with CCR5 antibody (BioLegend 359105) and passed through flow cytometry column to detect the level of CCR5 expression.
The subject of experiment [2] is F293 cells transfected with the ECE-CAS9 plasmid. Nature of the experiment: CAS activity in F293 cells transfected with ECE-CAS9 plasmid (Bpu10I cut/uncut ratio). The class given is cell-based. The following applies: DMEM supplemented with 10 μM BENZ, 48 hours. The source says: In one example, the ECE regulatory element of the present invention can be used to determine the expression level of the CRISPR-CAS9 complex (Gene Bank Accession No. KF264451) allowing timely editing of the genome. The viral (Px330) CRISPER CAS system can be acquired from “addgene” (plasmid #117919). The ECE regulatory element is synthesized with the sequence of the BseRI restriction site to produce an expression system of the invention having SEQ ID NO:51, and then to be inserted into the 117919 plasmid (SEQ ID NO:57). The ECE sequence is located within the artificial hybrid intron, known to increase transcription levels.
Plasmid was transfected in to F293 cells by Lipofectamine 3000 (L3000015 ThermoFisher) according to the manufacturer instructions. Immediately following transfection cells were incubated with either DMEM or DMEM supplemented with BENZ for 48 hours.
The sgRNA is designed to target the cyclin D1 gene (Accession BC023620) at the Bpu 10I restriction site (sgRNA=[…], SEQ ID NO:60). The efficiency of the CRISPER assay is determined by extracting the DNA, digesting it with Bpu10I and measuring, by bioanalyser, the ratio between the cut and uncut fragments, uncut indicates an efficient CAS activity.

The subject of experiment [3] is hpt gene with ECE in transgenic tobacco seedlings. Nature of the experiment: Conditional expression of hygromycin resistance (hpt) gene with ECE in transgenic tobacco. The class given is in vivo. The following applies: MS media versus MS+20 μM BENZ, seven days. The source says: Expression of selection genes is required only during early stages of plant transformation. Following the establishment of a transgenic plant, expression of the selection gene is not required. The hpt gene, conferring resistance to hygromycin, is generated by standard PCR reaction on the pBIGHYG plasmid (binary plasmid) and cloned into pTA vector. The ECE regulatory element is inserted into the hpt gene just after the its ATG start codon by standard Gibson assembly. In addition, the reporting gene GUS: B-glucuronidase is cloned into the pTA vector downstream to the hpt gene under the 35S promoter.
The vector is transferred into Agrobacterium tumefaciens EHAP105.
Tobacco genetic transformation is carried using hygromycin as for selection using a standard transformation protocol. 20 μM BENZ is added to the regeneration and selection medium to facilitate the expression of the selection gene. […] Seeds of heterozygous plants with single insert are selected.
Ten days following planting plants transformed to either MS-based media or remained on MS+20 μM BENZ media. Seven day after, RNA is extracted from transgenic plants. cDNA is synthesized from 20 μg of total RNA using cDNA syntheses kit. Quantitative real-time PCR is conducted on 100 ng of cDNA using the hygromycin-encoding gene primers.

The subject of experiment [4] is SBEIIb with ECE in transgenic rice. Nature of the experiment: SBEIIb expression and starch content in transgenic rice carrying ECE-SBEIIb. The following applies: rice grains 10 days post anthesis, activated by BENZ. The class given is in vivo, rice (Nipponbare). The source says: High levels of the starch branching IIb gene in rice (SBEIIb, GQ150904.1) are typically linked to lower amylose content. Downregulating the activity of SBEIIb can lead to rice seeds with higher amylose content. The SBEIIb coding sequence is cloned from Nipponbare cDNA into pTA vector using the standard PCR reaction. The resulted clone is manipulated to carry the ECE regulatory element. The resulted altered fragment is closed into rice-transformation vector containing the wHMWG promoter and NOS terminator. The vector also contains the hygromycin resistance gene under the control of the CaMV 35S promoter. The vector is transferred into Agrobacterium tumefaciens AGL1. […]
RNA is extracted from rice grains, 10 days post anthesis. cDNA is synthesized from 5 μg of total RNA using cDNA syntheses kit. Quantitative real-time PCR is conducted on 100 ng of cDNA using the SBEIIb primers.
Protein analysis is conducted on soluble native proteins extracted from rice grains obtained 10 days post anthesis. […] Signals are recorded by automatic film processor.
Mature panicles are analyzed for their starch content. Fully developed and mature seeds are collected, weighed, dried and ground and total starch is determined using Total Starch HK Assay (Megazyme) and resistant starch is determined using Resistant Starch Assay Kit (Megazyme).

The subject of experiment [5] is Arabidopsis thaliana protoplasts transformed with syz24-2.1 plasmid comprising the ECE within the GUS intron. Description: GUS reporter expression in Arabidopsis thaliana protoplasts (ECE within GUS intron). The class given is cell-based. As to the method: Arabidopsis protoplasts were prepared as previously described (Wu F-H et al. 2009. Plant methods 5:16 doi: 10.1186/1746-4811-5-16). Plasmids syz24-2.1 and a control plasmid 5060 (constitutive GUS expression) were transformed (in the presence or without 10 μM BENZ (BZ-CAS 121749-39-1-BZ) into protoplasts (Wu et al., supra). Transfected protoplasts were washed and cultured in W5 solution with or without BENZ (BZ) in 1% bovine serum albumin-coated 15 ml tubes for 16 h at 28° C. to allow expression of the transfected DNA. The GUS expression system enables detection of a functional β-glucuronidase when protoplasts expressing the gene are incubated with the enzyme substrate 5-bromo-4-chloro-3-indolyl glucuronide (X-Glu), where the product of the reaction is a clear blue color. As described hereinabove, the expression system of the invention was introduced into an intron within the GUS encoding gene. […] The following assays were designed: • 1. Non transformed protoplasts • 2. Non transformed protoplasts exposed to 10 μM BENZ • 3. Non transformed protoplasts exposed to 100 μM BENZ • 4. Protoplast transformed with plasmid syz24-2.1 without exposure to BENZ • 5. Protoplast transformed with plasmid syz24-2.1 exposed to 10 μM BENZ • 6. Protoplast transformed with plasmid syz24-2.1 exposed to 100 μM BENZ • 7. Protoplast transformed with plasmid 5060 without exposure to BENZ • 8. Protoplast transformed with plasmid 5060 exposed to 10 μM BENZ • 9. Protoplast transformed with plasmid 5060 exposed to 100 μM BENZ In all assays in which the transformed protoplasts were exposed to BENZ, the transformation and subsequent washes were performed in the presence of the corresponding BENZ concentration (10 or 100 μM). After the last wash, the protoplasts were suspended in W5 buffer containing 10 μM or 100 μM BENZ and placed at 28° C. for 48 h. Thereafter the protoplasts were collected (by spinning at 100gX3 minutes). Protoplasts were resuspended in 0.5 ml 0.5M monitol+0.5 mg X-glucuronide (sigma B5285) and incubated at 37° C. 24 h.

The subject of experiment [6] is Nicotiana benthamiana leaf discs transformed with Pzp 1503/syz24-1.2 plasmid (GUS + the mutated ECE). Nature of the experiment: GUS reporter expression in tobacco leaf discs (β-glucuronidase assay). The class given is cell-based. To be noted: MS buffer with 50 μM BENZ. How it is done: Protocol 5 ml Agrobacterium starter (transfected with the relevant plasmids) were grown with the selection antibiotics at 28° C. with agitation of 350 rpm overnight. Thereafter, the solution was centrifuged for 5 min. at 4500 g. The pellet was resuspended in 10 ml Induction Medium supplemented with the relevant antibiotic and 100 μM Acetosyringone, incubated for 5-6 hours at 28° C., 250 rpm and then centrifuged for 5 min at 4500 g. The bacteria were resuspended in 10 ml Infiltration Medium supplemented with 200 μM Acetosyringone (1M in DMSO). The bacteria density is measured at 660 nm to obtain OD660=1.
Leaf discs were cut from Nicotiana Benthamiana plants and put in 24 wells with 400 μl of the relevant Agrobacterium with or without 50 μM BENZ. Vacuum was applied for 8 min and then slowly released, followed by additional vacuum cycle of 1 min and slow release and incubation for 10 min. The leaf discs were then separated from the Agrobacterium suspension and resuspended with MS buffer with or without 50 μM BENZ and incubated at 24° C. for three days. At the end of the incubation, the leaf discs were subjected to β-glucuronidase (GUS) assay.
β-Glucuronidase (GUS) Assay
• 1. […]

In experiment [7] the test system is transgenic poplar trees with ECE in the CCR gene. Description: Lignin content in transgenic poplar carrying ECE-CCR. The following applies: transgenic trees upon completion of BENZ treatment cycle. In kind it is in vivo, Populus tremula×Populus alba. The source says:
Populus trichocarpa cv. Trichobel CCR cDNA (Accession No. AJ224986) is cloned in to pTA vector using standard PCR reaction. ECE assembled by Gibson in to the middle CCR gene by introducing artificial intron. The resulted sequence is cloned under a tandem repeat of the CaMV 35S constitutive promoter and is transferred into the binary vector pBIG-HYG conferring resistance to hygromycin. Binary vector is transferred into Agrobacterium strain LB4404.
Poplar (Populus tremula×Populus alba) plants are transformed by Agrobacterium as described (Leplé et al. 1992, Plant Cell Rep. 11:137-141.) Transformants are selected by hygromycin resistance. Transformation is confirmed by molecular analysis of the insertions.
Four-to-five-month old greenhouse-grown trees are sprayed daily with 100 μM BENZ during a period of 6 months. […]
RT-PCR analysis of CCR is performed at different stages of the growth and development of the trees. […] Quantification of cDNA molecules is performed in five replicates by qPCR machine.
Lignin content is analyzed in samples from different stages of the growth and development of the trees according to Dence, 1992 (Lignin determination. In: Dence C, Lin S, editors. Methods in Lignin Chemistry. Berlin: Springer-Verlag; 1992. pp. 33-61). […] Lignin is then extracted with CH2Cl2, dried over Na2SO4, evaporated under reduced pressure at 40° C., re-dissolved in 1 mL of CH2Cl2 and analyzed by GC-MS

This is an account of results in patent US12297438B2, “Gene expression elements and systems and use thereof” (GENENEER LTD., priority 2019, dated 2025).

Counter-ions that a name gives are not always drawn.

For `NCCCNCCCCNCCCN` [spermin, spermine], the CCR5 expression result in experiment [1] was “expected to increase”.
Turning to `CCNCCCNCCCNCCCNCC` [BENZ, N^1,N^11-Diethylnorspermine tetrahydrochloride], in experiment [2], the “CAS activity (increase of uncut fragments)” value is reported as “increase in CAS activity”. For the same compound, the “expression of hygromycin-encoding gene (quantitative real-time PCR)” value in experiment [3] is listed as “reduced in the transgenic seedlings when grown on MS media compared to seedling that grow on MS+20 μM BENZ”. Moreover, the “SBEIIb protein (Western blot)” value in experiment [4] was “increase in SBEIIb”. The “β-glucuronidase activity (blue color)” value is reported as “not observed” in experiment [5] (non-transformed protoplasts, 10 μM or 100 μM BENZ); “β-glucuronidase activity irrespective of the presence of BENZ” in experiment [5] (protoplasts transformed with control plasmid 5060 (constitutive GUS), 10 μM or 100 μM BENZ); “only when cells were incubated with W5 supplemented with 100 μM BENZ” in experiment [5] (protoplasts transformed with syz24-2.1, W5 supplemented with 10 μM BENZ); “showed β-glucuronidase activity” in experiment [5] (protoplasts transformed with syz24-2.1, W5 supplemented with 100 μM BENZ); “showed β-glucuronidase activity” in experiment [6] (leaf discs transformed with Pzp 1503/syz24-1.2, three days); “expressed β-glucuronidase activity” in experiment [6] (leaf discs transformed with control plasmid (constitutive GUS)). In experiment [7], the lignin levels result is “expected to be comparable to transgenic plants, and lower than wild type plants”.
